Reference: patent publication US7129234B2, “Phenyl heterocyclyl ethers” (Pfizer Inc., priority 2001, dated 2006)
Where a name gives a salt, the structure may show the parent alone.

| melting point | Compound |
| --- | --- |
| 224 to 226 °C | CNCc1cc2ccccc2nc1Oc1ccc(Cl)c(Cl)c1 (as salt: HCl) [Example 104, [2-(3,4-Dichlorophenoxy)-3-quinolinyl]-N-methylmethanamine] |
| 198 to 203 °C | CNCc1cccnc1Oc1ccc(Cl)c(Cl)c1 (as salt: HCl) [Example 105, [2-(3,4-Dichlorophenoxy)-3-pyridinyl]-N-methylmethanamine] |
| 198 to 203 °C | CNCc1cnccc1Oc1ccc(Cl)c(Cl)c1 (as salt: hydrochloride) [Example 103, [4-(3,4-Dichlorophenoxy)-3-pyridinyl]-N-methylmethanamine hydrochloride] |
| 195 to 197 °C | CN(C)Cc1cccnc1Oc1ccc(Cl)cc1 (as salt: hydrochloride) [Example 106, [2-(4-Chlorophenoxy)-3-pyridinyl]-N,N-dimethylmethanamine hydrochloride] |
